Measured values published in publication PMC5400620, “Preclinical therapeutic efficacy of a novel blood-brain barrier-penetrant dual PI3K/mTOR inhibitor with preferential response in PI3K/PTEN mutant glioma” (Oncotarget, 2017).

Tests used:
Akt phosphorylation = experiment: Western blot of PI3K signaling proteins in glioma cells; assay type: cell-based, human; details: 200 nM DS
Experimental: The levels of PI3K/mTOR signaling proteins, including pAkt, pS6 and P4EBP1 decreased in a dose- and time-dependent manner in all tested glioma cells (Figure 2A and 2B) as well as in the glioma tumor-initiating cell line GSC11 (Figure 2A and 2B). DS suppression of pAkt caused subsequent effects on Akt effectors such as 4EBP1 and S6 at 200-nM concentrations, and the maximum effects on Akt phosphorylation were observed 8 hours after 200 nM DS treatment.
Figure 2 DS7423 suppresses the PI3K signaling pathway in a dose- or time-dependent manner A. and B. Western blotting was performed to analyze the cellular protein levels of PI3K signaling proteins in U87 and LN229 glioma cells and GSC11 GICs. Cells were treated with the indicated doses of DS7423 for the indicated time intervals. DS7423 inhibited phosphorylation of the PI3K signaling components pAKT, pS6, and p4EBP1 in a time-dependent manner. D. Cells treated with the indicated doses of DS7423 for 24 hours. DS7423 inhibited phosphorylation of the PI3K signaling components pAKT, pS6, and p4EBP1 in a dose-dependent manner.
Cells were incubated with DS and then harvested and extracts were prepared for immunoblotting analysis. […]

[1] = system: PI3K/mTOR signaling (pAkt, pS6); experiment: pAkt and pS6 in U87 tumors or brain after a single PO dose; assay type: in vivo, mice; details: single PO dose 6 mg/kg, compared with untreated animals
Experimental: (§1) Figure 1 A. and B. Plasma and brain concentration-time profile of DS7423 following a single PO administration (6 mg/kg) to nude mice. C. Western blot of mouse brains probed with antibodies against pAkt (Ser473) and pS6 (Ser235/236) in a time profile similar to that shown in A and B. Results are presented as the mean ± SE of six animals in each group.
To correlate DS brain concentration with the modulation of PI3K/mTOR signaling in U87 tumors, we used immunohistochemical analysis to study the signaling alterations in tumor sections derived from mice at similar time points following a single PO dose of DS (6 mg/kg). Tissue sections were probed with antibodies against pAkt and pS6. […] DS plasma and brain concentrations decreased after 24 hours, which correlated with an increase in pAkt and pS6.

panel of 227 kinases = experiment: representative panel of 227 kinases in biochemical assays; details: greater than 50% inhibition only against 2 other kinases
Experimental: (§2) DS7423 inhibits PI3K/mTOR activity likely binding to the ATP binding cleft of these enzymes and was tested against class I PI3K and other kinases using an HTRF assay format and direct measurement of substrate phosphorylation, respectively.

U87 GFP-LC3 cells = experiment: GFP-LC3 puncta detection (autophagy); assay type: cell-based, human; details: TMZ 125 μM, DS 100 nM, control 2%
Description: To investigate the effects of DS, TMZ, or the TMZ/DS combination on autophagy in glioma cells, we transfected cells with GFP-LC3 constructs in addition to various drug treatment and control treatment regimens and examined the accumulation of punctate GFP-LC3 structures using fluorescence microscopy. During autophagy, LC3-II relocalizes to the autophagosomal membranes. Thus, the accumulation of GFP-LC3 puncta provides an effective way to detect autophagosomes. In control cells, GFP-LC3 punctate structures were not detected, but large numbers of GFP-LC3 punctate structures were found in cells treated with DS or TMZ (Figure 5C). […] Strikingly, the combination of DS and TMZ further induced autophagy in up to 50% of U87 cells.
U87 GFP-LC3 cells were analyzed by using a fluorescence microscope, and the percentage of cells displaying GFP-LC3-positive puncta was quantified by counting 5 random fields in 3 independent experiments.

p110α = p110α (Homo sapiens, UniProt P42336); experiment: class I PI3K HTRF assay, p110α; assay type: biochemical
p110α, sequence (P42336 whole entry): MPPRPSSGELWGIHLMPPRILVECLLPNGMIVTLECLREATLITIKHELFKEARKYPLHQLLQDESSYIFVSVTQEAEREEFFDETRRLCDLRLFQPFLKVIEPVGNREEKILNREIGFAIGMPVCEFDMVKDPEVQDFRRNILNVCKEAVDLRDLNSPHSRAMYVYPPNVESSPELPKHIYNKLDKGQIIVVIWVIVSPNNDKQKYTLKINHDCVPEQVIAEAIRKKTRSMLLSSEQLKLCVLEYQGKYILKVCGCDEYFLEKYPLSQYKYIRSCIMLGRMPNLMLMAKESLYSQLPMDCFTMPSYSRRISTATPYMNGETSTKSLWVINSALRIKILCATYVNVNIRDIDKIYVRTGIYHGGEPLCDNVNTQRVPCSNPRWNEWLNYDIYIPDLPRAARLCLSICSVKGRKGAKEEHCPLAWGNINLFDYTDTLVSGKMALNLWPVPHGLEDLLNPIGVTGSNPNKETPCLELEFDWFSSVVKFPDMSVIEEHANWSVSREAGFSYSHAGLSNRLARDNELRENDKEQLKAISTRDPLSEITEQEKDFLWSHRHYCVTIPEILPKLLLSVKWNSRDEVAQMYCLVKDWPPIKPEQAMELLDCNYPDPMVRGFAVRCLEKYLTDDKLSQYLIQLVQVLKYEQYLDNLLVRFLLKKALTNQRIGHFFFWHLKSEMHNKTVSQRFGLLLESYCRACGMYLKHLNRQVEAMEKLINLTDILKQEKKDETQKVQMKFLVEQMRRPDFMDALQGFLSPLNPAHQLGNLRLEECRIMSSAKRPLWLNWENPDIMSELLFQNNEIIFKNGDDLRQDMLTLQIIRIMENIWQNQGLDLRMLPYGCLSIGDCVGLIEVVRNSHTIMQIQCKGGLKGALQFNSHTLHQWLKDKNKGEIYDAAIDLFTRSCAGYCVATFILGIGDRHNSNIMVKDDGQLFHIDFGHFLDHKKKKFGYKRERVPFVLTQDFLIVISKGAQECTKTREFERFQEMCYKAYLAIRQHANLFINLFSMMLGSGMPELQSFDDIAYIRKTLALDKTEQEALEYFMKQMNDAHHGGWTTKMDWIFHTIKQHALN
p110α, sequence (P27986 whole entry partner): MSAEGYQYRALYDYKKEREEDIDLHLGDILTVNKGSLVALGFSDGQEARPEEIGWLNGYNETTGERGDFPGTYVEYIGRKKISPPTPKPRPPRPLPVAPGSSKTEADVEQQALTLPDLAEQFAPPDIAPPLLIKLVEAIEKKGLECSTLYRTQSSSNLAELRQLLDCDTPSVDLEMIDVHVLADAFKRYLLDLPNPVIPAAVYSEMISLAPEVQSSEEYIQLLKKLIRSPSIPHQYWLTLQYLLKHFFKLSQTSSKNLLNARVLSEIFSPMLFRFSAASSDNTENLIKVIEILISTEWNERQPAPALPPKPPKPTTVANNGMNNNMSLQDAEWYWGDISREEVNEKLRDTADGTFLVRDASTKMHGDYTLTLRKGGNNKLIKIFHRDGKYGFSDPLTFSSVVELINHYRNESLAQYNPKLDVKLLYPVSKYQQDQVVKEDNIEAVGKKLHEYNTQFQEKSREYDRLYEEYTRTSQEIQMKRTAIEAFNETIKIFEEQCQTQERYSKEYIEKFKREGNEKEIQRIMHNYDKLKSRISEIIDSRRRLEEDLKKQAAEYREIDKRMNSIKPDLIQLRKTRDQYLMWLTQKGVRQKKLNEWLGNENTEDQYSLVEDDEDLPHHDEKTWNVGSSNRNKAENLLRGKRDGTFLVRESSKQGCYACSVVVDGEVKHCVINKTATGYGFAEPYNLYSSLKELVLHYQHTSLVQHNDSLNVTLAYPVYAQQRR
Experimental: as §2

[2] = pharmacokinetic study in mice, plasma and brain concentrations by LC-MS/MS; assay type: in vivo, nude mice
Experimental: We studied the plasma concentration-time profile of DS following a single PO administration (6 mg/kg) in mice (Figure 1). Plasma concentrations remained generally constant and higher than 2 μmol/L up to 6 hours after treatment. The brain-to-plasma ratio of total concentrations remained unchanged and was approximately 0.1 between 1 and 6 hours after treatment (Figure 1A and 1B). Both plasma and brain DS concentrations decreased at 24 hours after treatment.
as §1
Mice were implanted with U87 cells intracranially as described previously. Twenty-one days after injection of the tumor cells,mice were randomized into groups. Mice were given a 6 mg/kg oral (PO) dose of DS. Blood samples of approximately 0.15 mL were collected from mice (n = 4 mice per time point) by retro-orbital bleeding in tubes containing K2EDTA as the anticoagulant pre-dose and at 2, 4, 6, and 24 hours post-dose. Plasma was collected and stored at −80°C until analysis. DS concentrations were determined by liquid chromatography-tandem mass spectrometry (LC-MS/MS) following plasma protein precipitation with acetonitrile and injection of the supernatant onto a TSK-GEL ODS-100V column (150 mm × 2 mm, 5 μm particle size). A Shimadzu 10A system (Shimadzu Corp., Kyoto, Japan) coupled with an AB Sciex API4000 triple-quadrupole mass spectrometer (Applied Biosystems, Foster City, CA) was used for the LC-MS/MS assay. […] DS and its internal standard ([^2H8]DS) were analyzed in the multiple reaction monitoring mode using the mass transitions of m/z 521→479 and 529→487, respectively. The lower and upper limits of quantitation were 2 and 5000-ng/mL10 μmol/L, respectively. […] For DS quantitation, mouse brains were homogenized in 3 volumes of 50% acetonitrile. […]

p110β = p110β (Homo sapiens, UniProt P42338); experiment: class I PI3K HTRF assay, p110β; assay type: biochemical
p110β, sequence (P42338 whole entry): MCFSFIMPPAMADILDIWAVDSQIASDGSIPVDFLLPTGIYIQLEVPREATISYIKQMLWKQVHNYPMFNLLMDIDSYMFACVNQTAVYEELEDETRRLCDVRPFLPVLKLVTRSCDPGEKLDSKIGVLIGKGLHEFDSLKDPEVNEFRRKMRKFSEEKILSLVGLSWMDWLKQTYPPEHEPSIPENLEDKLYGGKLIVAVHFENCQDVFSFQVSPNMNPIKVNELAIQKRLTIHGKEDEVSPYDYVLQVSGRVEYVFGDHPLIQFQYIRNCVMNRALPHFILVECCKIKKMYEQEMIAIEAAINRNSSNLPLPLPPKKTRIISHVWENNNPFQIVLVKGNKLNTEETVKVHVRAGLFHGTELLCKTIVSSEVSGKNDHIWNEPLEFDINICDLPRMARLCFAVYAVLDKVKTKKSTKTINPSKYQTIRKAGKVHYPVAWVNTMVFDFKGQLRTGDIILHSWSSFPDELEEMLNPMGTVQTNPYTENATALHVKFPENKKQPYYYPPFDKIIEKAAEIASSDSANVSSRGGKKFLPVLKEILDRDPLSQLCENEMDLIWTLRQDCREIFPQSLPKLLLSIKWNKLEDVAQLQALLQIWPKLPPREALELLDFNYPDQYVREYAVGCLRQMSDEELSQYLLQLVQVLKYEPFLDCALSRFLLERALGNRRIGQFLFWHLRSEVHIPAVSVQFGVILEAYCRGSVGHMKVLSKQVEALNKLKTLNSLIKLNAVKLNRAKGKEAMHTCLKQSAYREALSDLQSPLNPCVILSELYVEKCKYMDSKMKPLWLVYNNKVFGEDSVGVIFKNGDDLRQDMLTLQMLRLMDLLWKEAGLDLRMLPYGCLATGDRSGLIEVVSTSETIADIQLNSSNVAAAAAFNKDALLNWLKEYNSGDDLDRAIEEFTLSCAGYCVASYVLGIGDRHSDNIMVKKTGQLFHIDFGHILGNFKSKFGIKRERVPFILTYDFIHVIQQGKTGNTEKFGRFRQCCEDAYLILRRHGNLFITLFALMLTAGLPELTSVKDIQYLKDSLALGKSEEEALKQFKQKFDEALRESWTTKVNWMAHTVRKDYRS
p110β, sequence (P27986 whole entry partner): as the sequence (P27986 whole entry partner) above
Experimental: as §2

CC(=O)N1CCN(c2nc3c(N4CCOCC4)nc(-c4cnc(N)nc4)nc3n2CC(F)(F)F)C[C@H]1C [DS, 1-{(2R)-4-[2-(2-Aminopyrimidin-5-yl)-6-(morpholin-4-yl)-9-(2,2,2-trifluoroethyl)-9H-purin-8-yl]-2-methylpiperazin-1-yl}ethan-1-one]
time of maximum effects on Akt phosphorylation (Akt phosphorylation): 8 h
pAkt and pS6 staining in U87 tumors [1]: marked reduction
inhibition of a representative panel of 227 kinases (panel of 227 kinases): poorly inhibited
cells with induced autophagy (GFP-LC3 puncta) (U87 GFP-LC3 cells): 30%
IC50 (p110α): 0.017 µM
concentration achievable in the mouse brains [2]: 0.2 µM
Kp at 6 h ([2]; nude, mouse, brain and plasma, single PO 6 mg/kg, between 1 and 6 hours after treatment, read-out: brain-to-plasma ratio of total concentrations): ~0.1
plasma concentration ([2]; single PO 6 mg/kg, up to 6 hours after treatment): higher than 2 μmol/L
IC50 (p110β): 1.14 µM
